Results published in patent US20130310362A1, “FUSED PYRIMIDINES” (BAYER PHARMA AKTIEGESELLSCHAFT, priority 2009, published 2013).

How the values were obtained:
[1] = target: T1, human recombinant kinase full-length Akt1 (Homo sapiens, UniProt P31749); assay: Akt1 kinase assay (TR-FRET); assay type: biochemical; settings: 10 μM ATP, 1 μM peptide substrate, 60 min at 22° C.; read-out: IC50 Akt1 Biological Assay 1.0)
T1 construct: human recombinant kinase full-length Akt1; His; purchased Invitrogen PV 3599; host or cells: insect cells
Description: Biological Assay 1.0: Akt1 Kinase Assay
Akt1 inhibitory activity of compounds of the present invention may be quantified employing the Akt1 TR-FRET assay as described in the following paragraphs.
His-tagged human recombinant kinase full-length Akt1 expressed in insect cells was purchased form Invitrogen (part number PV 3599). As substrate for the kinase reaction the biotinylated peptide biotin-Ahx-KKLNRTLSFAEPG (C-terminus in amide form) was used which can be purchased e.g. from the company Biosynthan GmbH (Berlin-Buch, Germany).
(§1) For the assay 50 nl of a 100 fold concentrated solution of the test compound in DMSO was pipetted into a black low volume 384 well microtiter plate (Greiner Bio-One, Frickenhausen, Germany), 2 μl of a solution of Akt1 in assay buffer [50 mM TRIS/HCl pH 7.5, 5 mM MgCl2, 1 mM dithiothreitol, 0.02% (v/v) Triton X-100 (Sigma)] were added and the mixture was incubated for 15 min at 22° C. to allow pre-binding of the test compounds to the enzyme before the start of the kinase reaction. Then the kinase reaction was started by the addition of 3 μl of a solution of adenosine-tri-phosphate (ATP, 16.7 μM=>final conc. in the 5 μl assay volume is 10 μM) and substrate (1.67 μM=>final conc. in the 5 μl assay volume is 1 μM) in assay buffer and the resulting mixture was incubated for a reaction time of 60 min at 22° C. The concentration of Akt1 in the assay was adjusted depending of the activity of the enzyme lot and was chosen appropriate to have the assay in the linear range, typical enzyme concentrations were in the range of about 0.05 ng/μl (final conc. in the 5 μl assay volume).
(§2) The reaction was stopped by the addition of 5 μl of a solution of HTRF detection reagents (200 nM streptavidine-XL665 [Cisbio] and 1.5 nM anti-phosho-Serine antibody [Millipore, cat. #35-001] and 0.75 nM LANCE Eu-W 1024 labeled anti-mouse IgG antibody [Perkin Elmer]) in an aqueous EDTA-solution (100 mM EDTA, 0.1% (w/v) bovine serum albumin in 50 mM HEPES/NaOH pH 7.5). The resulting mixture was incubated 1 h at 22° C. to allow the binding of the biotinylated phosphorylated peptide to the streptavidine-XL665 and the antibodies. Subsequently the amount of phosphorylated substrate was evaluated by measurement of the resonance energy transfer from the anti-mouse-IgG-Eu-Chelate to the streptavidine-XL665. Therefore, the fluorescence emissions at 620 nm and 665 nm after excitation at 350 nm was measured in a HTRF reader, e.g. a Rubystar (BMG Labtechnologies, Offenburg, Germany) or a Viewlux (Perkin-Elmer). The ratio of the emissions at 665 nm and at […] was taken as the measure for the amount of phosphorylated substrate. The data were normalised (enzyme reaction without inhibitor=0% inhibition, all other assay components but no enzyme=100% inhibition). Normally test compound were tested on the same microtiter plate at 10 different concentrations in the range of 20 μM to 1 nM (20 μM, 6.7 μM, 2.2 μM, 0.74 μM, 0.25 μM, 82 nM, 27 nM, 9.2 nM, 3.1 nM and 1 nM, dilution series prepared before the assay at the level of the 100 fold conc. stock solutions by serial 1:3 dilutions) in duplicate values for each concentration and 1050 values were calculated by a 4 parameter fit using an inhouse software.

[2] = target: T2, human recombinant kinase full-length Akt2 (Homo sapiens, UniProt P31751); assay: Akt2 kinase assay (TR-FRET); assay type: biochemical; settings: Akt2 activated by PDK1, 10 μM ATP, 1 μM peptide substrate, 60 min at 22° C.; read-out: IC50 Akt2 (Biological Assay 2.0)
T2 construct: human recombinant kinase full-length Akt2; His; purchased Invitrogen PV 3975; host or cells: insect cells
Description: Biological Assay 2.0: Akt2 Kinase Assay
Akt2 inhibitory activity of compounds of the present invention was quantified employing the Akt2 TR-FRET assay as described in the following paragraphs.
as §1, with “His-tagged human recombinant kinase full-length Akt2 expressed in insect cells and activated by PDK1 was purchased form Invitrogen (part number PV 3975). As substrate for the kinase reaction the biotinylated peptide biotin-Ahx-KKLNRTLSFAEPG (C-terminus in amide form) was used which can be purchased e.g. from the company Biosynthan GmbH (Berlin-Buch, Germany). For” for “For”, “Akt2” for “Akt1”, “0.2” for “0.05”
as §2, with “a TR-FRET” for “a HTRF”, “inhibition).” for “inhibition). Normally test compound were tested on the same microtiter plate at 10 different concentrations in the range of 20 μM to 1 nM (20 μM, 6.7 μM, 2.2 μM, 0.74 μM, 0.25 μM, 82 nM, 27 nM, 9.2 nM, 3.1 nM and 1 nM, dilution series prepared before the assay at the level of the 100 fold conc. stock solutions by serial 1:3 dilutions) in duplicate values for each concentration and 1050 values were calculated by a 4 parameter fit using an inhouse software.”

[3] = system: Akt phosphorylation (Ser473) in MCF7 cells; assay: Cellular PI3K/Akt pathway assay (Phospho-Akt1 (Ser473) sandwich ELISA); assay type: cell-based; settings: Homo sapiens, β-Heregulin stimulated, 48 h incubation, read-out: IC50 p-Akt (Biological Assay 5.0)
Description: Biological Assay 5.0: Cellular PI3K/Akt Pathway Assay
In order to study the cellular activity of the compounds according to the present invention, an Enzyme Linked Immunosorbent Assay (ELISA)-based assay may be used to investigate the inhibitory effect on Akt phosphorylation.
The ELISA Kit detects endogenous levels of phosphorylated Akt protein. […] After incubation with cell lysates, the coated antibody captures the phosphorylated Akt protein. […] The magnitude of optical density for this developed color is proportional to the quantity of phosphorylated Akt protein. MCF7 cells (ATCC HTB-22) are seeded into 96 well fate bottom plates at a density of 10000 cells/well. 24 hours after seeding, the cells are serum starved using low-serum medium (IMEM media including 0.1% charcoal treated FCS (FCS: fetal calf serum)). After 24 hours 1 μl each of the compound dilutions (test compounds were dissolved as 10 mM solutions in dimethylsulfoxide (DMSO) and subsequently diluted) are added into each well of the 96 well plates and incubated for 48 h at 37° C. in a humidified athmosphere containing 5% CO2. To stimulate Akt phosphorylation, β-Heregulin (20 ng/mL β-HRG) is added in parallel to the compounds. Wells containing unstimulated control cells (no β-Heregulin stimulation) are incubated with or without the diluted compound. Wells containing untreated control cells (no compound) are filled with medium containing 0.5% v:v DMSO and are or are not stimulated with 3-Heregulin.
Cells are harvested and lysed with brief sonification in 1× cell lysis buffer (20 mM Tris (pH7.5), 150 mM NaCl, 1 mM ethylene diaminetetraacetate (EDTA), 1 mM ethylene glycolbis(2-aminoethyl)-N,N,N′,N′-tetraacetic acid (EGTA), 1 vol % Triton X-100, 2.5 mM sodium pyrophosphate, 1 mM β-glycerolphosphate, 1 mM Na3VO4, 1 μg/mL leupeptin). The lysate is centrifuged for 10 min. at 4° C. and the supernatant is transferred to a new tube. […] The absorbance is measured at λ=450 nm (Wallac Victor2; Perkin Elmer, USA) within 30 min. after adding the STOP solution. […]

T2 sequence (P31751 whole entry): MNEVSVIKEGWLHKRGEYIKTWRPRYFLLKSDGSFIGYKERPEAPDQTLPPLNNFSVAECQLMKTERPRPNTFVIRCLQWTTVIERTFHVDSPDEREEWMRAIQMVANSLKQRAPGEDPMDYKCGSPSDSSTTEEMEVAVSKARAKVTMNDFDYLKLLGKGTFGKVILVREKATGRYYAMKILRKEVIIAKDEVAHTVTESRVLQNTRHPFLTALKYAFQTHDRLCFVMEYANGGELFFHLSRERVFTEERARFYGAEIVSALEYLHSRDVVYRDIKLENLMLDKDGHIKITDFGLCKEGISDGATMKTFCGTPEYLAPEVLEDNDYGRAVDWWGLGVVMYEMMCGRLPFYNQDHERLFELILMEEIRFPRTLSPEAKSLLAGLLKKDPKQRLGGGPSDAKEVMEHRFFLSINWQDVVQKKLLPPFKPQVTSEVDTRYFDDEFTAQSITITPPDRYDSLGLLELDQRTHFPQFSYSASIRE
T1 sequence (P31749 whole entry): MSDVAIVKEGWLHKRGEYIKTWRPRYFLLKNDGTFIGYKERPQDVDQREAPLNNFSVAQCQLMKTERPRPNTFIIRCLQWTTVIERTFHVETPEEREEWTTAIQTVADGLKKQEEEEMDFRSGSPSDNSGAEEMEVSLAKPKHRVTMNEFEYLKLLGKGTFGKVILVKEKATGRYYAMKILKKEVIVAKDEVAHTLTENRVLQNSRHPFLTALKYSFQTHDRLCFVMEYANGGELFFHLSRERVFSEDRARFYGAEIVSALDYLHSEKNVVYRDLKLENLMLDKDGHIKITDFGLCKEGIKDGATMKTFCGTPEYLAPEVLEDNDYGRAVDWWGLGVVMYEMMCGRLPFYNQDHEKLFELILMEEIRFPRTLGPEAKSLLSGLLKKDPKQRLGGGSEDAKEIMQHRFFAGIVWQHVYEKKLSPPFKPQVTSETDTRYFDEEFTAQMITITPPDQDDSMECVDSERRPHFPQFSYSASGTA

Structure (SMILES) | IC50 [1] [nM] | IC50 [2] [nM] | IC50 [3] [nM]
Cc1nc(-c2ccc(CN3CCC(c4n[nH]c(-c5ccccn5)n4)CC3)cc2)c(-c2ccccc2)c2nccn12 [Example 1.0, 5-methyl-8-phenyl-7-{4-[4-(5-pyridin-2-yl-1H-[1,2,4]triazol-3-yl)-piperidin-1-ylmethyl]-phenyl}-imidazo[1,2-c]pyrimidine] | 4 | 53 | < 50
c1ccc(-c2c(-c3ccc(CN4CCC(c5n[nH]c(-c6ccccn6)n5)CC4)cc3)ncn3ccnc23)cc1 [Example 2.0, 8-phenyl-7-{4-[4-(5-pyridin-2-yl-1H-[1,2,4]triazol-3-yl)-piperidin-1-ylmethyl]-phenyl}-imidazo[1,2-c]pyrimidine] | 8 | 42 | 8
